Test results taken from ChEMBL document CHEMBL4627363, “S1P1-selective agonist prodrug IMMH002 is phosphorylated in rats to form an S-configured enantiomer: Synthesis, verification, and biological activity of the in vivo active metabolite” (Bioorg Med Chem Lett, 2020).

How the values were obtained:
Homo sapiens = species on record: Homo sapiens; experiment: Ratio of EC50 for S1PR3 (unknown origin) to EC50 for S1PR1 (unknown origin)
[1] = target: Sphingosine 1-phosphate receptor 1 (Homo sapiens, UniProt P21453); experiment: Agonist activity at S1P1 (unknown origin) by HTRF assay
Chain of Sphingosine 1-phosphate receptor 1 (P21453 whole entry): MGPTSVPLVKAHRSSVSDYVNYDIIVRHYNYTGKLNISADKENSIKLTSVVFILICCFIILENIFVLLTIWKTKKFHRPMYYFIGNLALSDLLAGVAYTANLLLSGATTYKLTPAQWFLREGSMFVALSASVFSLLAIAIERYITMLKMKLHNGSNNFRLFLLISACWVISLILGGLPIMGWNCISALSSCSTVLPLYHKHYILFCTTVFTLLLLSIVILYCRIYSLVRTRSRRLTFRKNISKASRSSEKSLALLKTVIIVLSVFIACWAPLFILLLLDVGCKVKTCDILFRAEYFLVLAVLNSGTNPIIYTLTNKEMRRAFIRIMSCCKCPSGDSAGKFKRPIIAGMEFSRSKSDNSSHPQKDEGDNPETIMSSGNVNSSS

[2] = target: Sphingosine 1-phosphate receptor 3 (Homo sapiens, UniProt Q99500); experiment: Agonist activity at S1PR3 (unknown origin) by HTRF assay
Chain of Sphingosine 1-phosphate receptor 3 (Q99500 whole entry): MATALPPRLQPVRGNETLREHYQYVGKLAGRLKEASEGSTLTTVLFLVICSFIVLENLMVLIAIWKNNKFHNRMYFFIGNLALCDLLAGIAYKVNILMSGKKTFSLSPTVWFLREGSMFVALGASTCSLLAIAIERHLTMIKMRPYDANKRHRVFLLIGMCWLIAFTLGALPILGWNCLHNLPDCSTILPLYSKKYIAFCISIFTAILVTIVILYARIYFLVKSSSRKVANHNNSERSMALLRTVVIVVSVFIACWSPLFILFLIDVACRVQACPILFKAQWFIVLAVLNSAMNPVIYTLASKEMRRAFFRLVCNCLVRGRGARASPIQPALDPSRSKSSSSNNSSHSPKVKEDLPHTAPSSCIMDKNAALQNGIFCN

Compound	Ratio EC50 (Homo sapiens)	EC50 [1] [nM]	EC50 [2] [nM]
CCc1nc(-c2ccc(-c3ccc(CC[C@](N)(CO)COP(=O)(O)O)cc3)cc2)co1	173	2.2	380
CCc1nc(-c2ccc(-c3ccc(CCC(N)(CO)CO)cc3)cc2)co1	–	332	> 10000
CCc1nc(-c2ccc(-c3ccc(CC[C@@](N)(CO)COP(=O)(O)O)cc3)cc2)co1	1.6	469	736
CCc1nc(-c2ccc(-c3ccc(CCC(N)(CO)COP(=O)(O)O)cc3)cc2)co1 (racemic)	105	5	523
